# In patent publication US20250122218A1, “MODULATORS OF CYSTIC FIBROSIS TRANSMEMBRANE CONDUCTANCE REGULATOR” (Vertex Pharmaceuticals Incorporated, priority 2022, published 2025):
# Target: T1, CFTR in F508del/MF-HBE cells (Homo sapiens, UniProt P13569, DEL508-508)
# T1 construct: human bronchial epithelial (HBE) cells derived from CF subjects heterozygous for F508del and a minimal function CFTR mutation; endogenous in cells; host or cells: primary human bronchial epithelial cells from CF subjects (F508del/MF-HBE)
# Experiment: Ussing chamber assay of CFTR-mediated short-circuit currents (identification of potentiator compounds)
# Type: cell-based
# Settings: potentiator incubated 18-24 hours at 37° C. in combination with 10 μM corrector, in the presence of 20% human serum, CFTR-mediated ISC
# Procedure, shortened: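 Short-circuit current was measured in Ussing chambers at 37° C, Vhold 0 mV, 30 μM apical amiloride. CFTR current was defined as the forskolin (20 μM) response relative to the current remaining after BPO/GlyH-101/inhibitor 172 (20 μM each). Before recording, cells had 18-24 h exposure to test potentiators with 10 μM corrector compound in 20% human serum.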
# T1 sequence (P13569 with tags, fused parts or gaps DEL508-508): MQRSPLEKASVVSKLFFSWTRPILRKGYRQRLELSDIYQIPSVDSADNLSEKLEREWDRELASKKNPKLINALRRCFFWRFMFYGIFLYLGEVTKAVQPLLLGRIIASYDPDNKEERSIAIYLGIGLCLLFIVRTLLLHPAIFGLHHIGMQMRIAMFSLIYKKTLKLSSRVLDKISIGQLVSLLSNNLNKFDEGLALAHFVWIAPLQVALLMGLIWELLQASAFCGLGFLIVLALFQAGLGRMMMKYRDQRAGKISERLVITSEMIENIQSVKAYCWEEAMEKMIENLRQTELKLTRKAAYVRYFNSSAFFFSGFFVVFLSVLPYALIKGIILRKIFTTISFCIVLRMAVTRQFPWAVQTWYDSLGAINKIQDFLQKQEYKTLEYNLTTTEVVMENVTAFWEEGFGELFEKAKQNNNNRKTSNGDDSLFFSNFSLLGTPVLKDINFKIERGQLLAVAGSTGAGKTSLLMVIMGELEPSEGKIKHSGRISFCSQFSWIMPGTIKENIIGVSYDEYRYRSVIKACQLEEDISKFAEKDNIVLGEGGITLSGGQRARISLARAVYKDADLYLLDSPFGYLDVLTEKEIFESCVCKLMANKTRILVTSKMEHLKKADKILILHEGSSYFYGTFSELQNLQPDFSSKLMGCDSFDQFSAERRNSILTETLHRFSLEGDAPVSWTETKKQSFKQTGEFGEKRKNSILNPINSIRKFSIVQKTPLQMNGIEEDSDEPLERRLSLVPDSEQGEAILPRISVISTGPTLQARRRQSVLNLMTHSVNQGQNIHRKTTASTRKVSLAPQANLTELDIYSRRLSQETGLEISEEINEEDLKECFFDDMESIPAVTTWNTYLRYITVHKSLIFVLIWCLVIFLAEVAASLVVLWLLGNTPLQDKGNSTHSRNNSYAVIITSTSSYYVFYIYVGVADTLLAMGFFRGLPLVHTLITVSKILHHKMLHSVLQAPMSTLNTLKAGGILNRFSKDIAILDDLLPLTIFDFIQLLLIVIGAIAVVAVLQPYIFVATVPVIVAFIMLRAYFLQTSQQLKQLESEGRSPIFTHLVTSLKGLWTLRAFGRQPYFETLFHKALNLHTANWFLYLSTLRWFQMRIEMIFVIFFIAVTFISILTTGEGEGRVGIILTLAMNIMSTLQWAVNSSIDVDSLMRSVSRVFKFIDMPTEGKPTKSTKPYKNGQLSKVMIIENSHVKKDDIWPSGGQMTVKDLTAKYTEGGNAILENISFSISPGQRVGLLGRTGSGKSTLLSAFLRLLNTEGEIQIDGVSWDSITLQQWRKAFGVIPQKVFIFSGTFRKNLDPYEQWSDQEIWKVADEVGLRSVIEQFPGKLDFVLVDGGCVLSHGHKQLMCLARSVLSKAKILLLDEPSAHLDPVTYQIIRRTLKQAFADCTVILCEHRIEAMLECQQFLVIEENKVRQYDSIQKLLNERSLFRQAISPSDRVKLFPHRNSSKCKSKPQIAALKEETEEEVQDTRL
row,EC50,Compound
1,< 500 nM,"Nc1cc(C(F)(F)F)c2nc1-c1nnc(o1)[C@@](O)(C(F)(F)F)CCCCCN(C1CCCCC1)C2=O [Compound 81, (6R)-17-Amino-12-cyclohexyl-6-hydroxy-6,15-bis (trifluoromethyl)-19-oxa-3,4,12,18-tetrazatricyclo [12.3.1.12,5] nonadeca-1(18),2,4,14,1 6-pentaen-13-one]"
2,< 500 nM,"CCCN1CCCCC[C@](O)(C(F)(F)F)C2=NN=C(O2)c2nc(c(C(F)(F)F)cc2N)C1=O [Compound 82, (6R)-17-Amino-6-hydroxy-12-propyl-6,15-bis (trifluoromethyl)-19-oxa-3,4,12,18-tetrazatricyclo [12.3.1.12,5] nonadeca-1(18),2,4,14,1 6-pentaen-13-one]"
3,< 500 nM,"Nc1cc(C(F)(F)F)c2nc1-c1nnc(o1)[C@@](O)(C(F)(F)F)CCCCCN(CC1CC1)C2=O [Compound 83, (6R)-17-Amino-12-(cyclopropylmethyl)-6-hydroxy-6,15-bis(trifluoromethyl)-19-oxa-3,4,12,18-tetrazatricyclo [12.3.1.12,5] nonadeca-1(18),2,4,14,1 6-pentaen-13-one]"
4,< 500 nM,"Nc1cc(C(F)(F)F)c2nc1-c1nnc(o1)[C@@](O)(C(F)(F)F)CCCCCN(C1CC(F)(F)C1)C2=O [Compound 84, (6R)-17-Amino-12-(3,3-difluorocyclobutyl)-6-hydroxy-6,15-bis (trifluoromethyl)-19-oxa-3,4,12,18-tetrazatricyclo [12.3.1.12,5] nonadeca-1(18),2,4,14,1 6-pentaen-13-one]"
5,< 500 nM,"CC(C)(C)N1CCCCC[C@](O)(C(F)(F)F)C2=NN=C(O2)c2nc(c(C(F)(F)F)cc2N)C1=O [Compound 85, (6R)-17-Amino-12-tert-butyl-6-hydroxy-6,15-bis(trifluoromethyl)-19-oxa-3,4,12,18-tetrazatricyclo [12.3.1.12,5] nonadeca-1(18),2,4,14,1 6-pentaen-13-one]"
6,< 500 nM,"Nc1cc(C(F)(F)F)c2nc1-c1nnc(o1)[C@@](O)(C(F)(F)F)CCCCCN(C13CC(C1)C3)C2=O [Compound 86, (6R)-17-Amino-12-(1-bicyclo[1.1.1]pentanyl)-6-hydroxy-6,15-bis (trifluoromethyl)-19-oxa-3,4,12,18-tetrazatricyclo [12.3.1.12,5] nonadeca-1(18),2,4,14,1 6-pentaen-13-one]"
7,< 500 nM,"Nc1cc(C(F)(F)F)c2nc1-c1nnc(o1)[C@@](O)(C(F)(F)F)CCCCCN(C1CC3(CCC3)C1)C2=O [Compound 87, (6R)-17-Amino-6-hydroxy-12-spiro[3.3]heptan-2-yl-6,15-bis(trifluoromethyl)-19-oxa-3,4,12,18-tetrazatricyclo [12.3.1.12,5] nonadeca-1(18),2,4,14,1 6-pentaen-13-one]"
8,< 500 nM,"CC[C@H](C)N1CCCCC[C@](O)(C(F)(F)F)C2=NN=C(O2)c2nc(c(C(F)(F)F)cc2N)C1=O [Compound 88, (6R)-17-Amino-6-hydroxy-12-[(1S)-1-methylpropyl]-6,15-bis (trifluoromethyl)-19-oxa-3,4,12,18-tetrazatricyclo [12.3.1.12,5] nonadeca-1(18),2,4,14,1 6-pentaen-13-one]"
9,< 500 nM,"CC[C@@H](C)N1CCCCC[C@](O)(C(F)(F)F)C2=NN=C(O2)c2nc(c(C(F)(F)F)cc2N)C1=O [Compound 89, (6R)-17-Amino-6-hydroxy-12-[(1R)-1-methylpropyl]-6,15-bis (trifluoromethyl)-19-oxa-3,4,12,18-tetrazatricyclo [12.3.1.12,5] nonadeca-1(18),2,4,14,1 6-pentaen-13-one]"
10,< 500 nM,"CCC(C)(C)N1CCCCC[C@](O)(C(F)(F)F)C2=NN=C(O2)c2nc(c(C(F)(F)F)cc2N)C1=O [Compound 90, (6R)-17-Amino-12-(1,1-dimethylpropyl)-6-hydroxy-6,15-bis(trifluoromethyl)-19-oxa-3,4,12,18-tetrazatricyclo [12.3.1.12,5] nonadeca-1(18),2,4,14,1 6-pentaen-13-one]"
11,< 500 nM,"Nc1cc(C(F)(F)F)c2nc1-c1nnc(o1)[C@@](O)(C(F)(F)F)CCCCCN(C1CCC(F)(F)CC1)C2=O [Compound 91, (6R)-17-Amino-12-(4,4-difluorocyclohexyl)-6-hydroxy-6,15-bis (trifluoromethyl)-19-oxa-3,4,12,18-tetrazatricyclo [12.3.1.12,5] nonadeca-1(18),2,4,14,1 6-pentaen-13-one]"
12,< 500 nM,"Nc1cc(C(F)(F)F)c2nc1-c1nnc(o1)[C@@](O)(C(F)(F)F)CCCCCN(C1C3CC1C3)C2=O (stereo partly drawn) [Compound 92, (6R)-17-Amino-12-(2-bicyclo[1.1.1]pentanyl)-6-hydroxy-6,15-bis(trifluoromethyl)-19-oxa-3,4,12,18-tetrazatricyclo [12.3.1.12,5] nonadeca-1(18),2,4,14,1 6-pentaen-13-one]"
13,< 500 nM,"CC1(C)CC(N2CCCCC[C@](O)(C(F)(F)F)C3=NN=C(O3)c3nc(c(C(F)(F)F)cc3N)C2=O)C1 [Compound 93, (6R)-17-Amino-12-(3,3-dimethylcyclobutyl)-6-hydroxy-6,15-bis (trifluoromethyl)-19-oxa-3,4,12,18-tetrazatricyclo [12.3.1.12,5] nonadeca-1(18),2,4,14,1 6-pentaen-13-one]"
14,< 500 nM,"CC1(N2CCCCC[C@](O)(C(F)(F)F)C3=NN=C(O3)c3nc(c(C(F)(F)F)cc3N)C2=O)CC1 [Compound 94, (6R)-17-Amino-6-hydroxy-12-(1-methylcyclopropyl)-6,15-bis (trifluoromethyl)-19-oxa-3,4,12,18-tetrazatricyclo [12.3.1.12,5] nonadeca-1(18),2,4,14,1 6-pentaen-13-one]"
15,< 500 nM,"Nc1cc(C(F)(F)F)c2nc1-c1nnc(o1)[C@@](O)(C(F)(F)F)CCCCCN(C1CC3(C1)CC(F)(F)C3)C2=O [Compound 95, (6R)-17-Amino-12-(2,2-difluorospiro [3.3]heptan-6-yl)-6-hydroxy-6,15-bis (trifluoromethyl)-19-oxa-3,4,12,18-tetrazatricyclo [12.3.1.12,5] nonadeca-1(18),2,4,14,1 6-pentaen-13-one]"
16,< 500 nM,"CC1(N2CCCCC[C@](O)(C(F)(F)F)C3=NN=C(O3)c3nc(c(C(F)(F)F)cc3N)C2=O)CC(F)(F)C1 [Compound 96, (6R)-17-Amino-12-(3,3-difluoro-1-methyl-cyclobutyl)-6-hydroxy-6,15-bis (trifluoromethyl)-19-oxa-3,4,12,18-tetrazatricyclo [12.3.1.12,5] nonadeca-1(18),2,4,14,1 6-pentaen-13-one]"
17,< 500 nM,"CC(C)(C)[C@H]1CC[C@H](N2CCCCC[C@](O)(C(F)(F)F)C3=NN=C(O3)c3nc(c(C(F)(F)F)cc3N)C2=O)CC1 [Compound 97, (6R)-17-Amino-12-(trans-4-tert-butylcyclohexyl)-6-hydroxy-6,15-bis (trifluoromethyl)-19-oxa-3,4,12,18-tetrazatricyclo [12.3.1.12,5] nonadeca-1(18),2,4,14,1 6-pentaen-13-one]"
18,< 500 nM,"Nc1cc(C(F)(F)F)c2nc1-c1nnc(o1)[C@@](O)(C(F)(F)F)CCCCCN(C1CCOCC1)C2=O [Compound 98, (6R)-17-Amino-6-hydroxy-12-tetrahydropyran-4-yl-6,15-bis (trifluoromethyl)-19-oxa-3,4,12,18-tetrazatricyclo [12.3.1.12,5] nonadeca-1(18),2,4,14,1 6-pentaen-13-one]"
19,> 1000 nM,"Nc1cc(C(F)(F)F)c2nc1-c1nnc(o1)[C@@](O)(C(F)(F)F)CCCCCN(C1CC3(CNC3)C1)C2=O [Compound 99, (6R)-17-Amino-12-(2-azaspiro[3.3]heptan-6-yl)-6-hydroxy-6,15-bis (trifluoromethyl)-19-oxa-3,4,12,18-tetrazatricyclo [12.3.1.12,5] nonadeca-1(18),2,4,14,1 6-pentaen-13-one]"
20,< 500 nM,"Nc1cc(C(F)(F)F)c2nc1-c1nnc(o1)[C@@](O)(C(F)(F)F)CCCCCN(C1CCCC1)C2=O [Compound 100, (6R)-17-Amino-12-cyclopentyl-6-hydroxy-6,15-bis (trifluoromethyl)-19-oxa-3,4,12,18-tetrazatricyclo [12.3.1.12,5] nonadeca-1(18),2,4,14,1 6-pentaen-13-one]"
21,< 500 nM,"Nc1cc(C(F)(F)F)c2nc1-c1nnc(o1)[C@@](O)(C(F)(F)F)CCCCCN(Cc1ccc3c(c1)OC(F)(F)O3)C2=O [Compound 101, (6R)-Amino-12-[(2,2-difluoro-1,3-benzodioxol-5-yl)methyl]-6-hydroxy-6,15-bis (trifluoromethyl)-19-oxa-3,4,12,18-tetrazatricyclo [12.3.1.12,5] nonadeca-1(18),2,4,14,1 6-pentaen-13-one]"
22,> 1000 nM,"Nc1cc(C(F)(F)F)c2nc1-c1nnc(o1)[C@@](O)(C(F)(F)F)CCCCCN(C1CCS(=O)(=O)CC1)C2=O [Compound 102, (6R)-17-Amino-12-(1,1-dioxothian-4-yl)-6-hydroxy-6,15-bis (trifluoromethyl)-19-oxa-3,4,12,18-tetrazatricyclo [12.3.1.12,5] nonadeca-1(18),2,4,14,1 6-pentaen-13-one]"
23,> 1000 nM,"Nc1cc(C(F)(F)F)c2nc1-c1nnc(o1)[C@@](O)(C(F)(F)F)CCCCCN(C1CS(=O)(=O)C1)C2=O [Compound 103, (6R)-17-Amino-12-(1,1-dioxothietan-3-yl)-6-hydroxy-6,15-bis (trifluoromethyl)-19-oxa-3,4,12,18-tetrazatricyclo [12.3.1.12,5] nonadeca-1(18),2,4,14,1 6-pentaen-13-one]"
24,< 500 nM,"C[C@@H](c1ccc(F)cc1)N1CCCCC[C@](O)(C(F)(F)F)C2=NN=C(O2)c2nc(c(C(F)(F)F)cc2N)C1=O [Compound 104, (6R)-17-Amino-12-[(1S)-1-(4-fluorophenyl)ethyl]-6-hydroxy-6,15-bis (trifluoromethyl)-19-oxa-3,4,12,18-tetrazatricyclo [12.3.1.12,5] nonadeca-1(18),2,4,14,1 6-pentaen-13-one]"
